Reference: PubChem BioAssay AID328 (DTP/NCI, 2004)
“And” between values parts separate entries of the source, which are not always exact repeats. Equal entries are not always repeated. Inconclusive results and toxic doses are left out.

System: BDF1 mice, P388 leukemia ip, median survival T/C
Experiment: NCI In Vivo Anticancer Drug Screen. Data for tumor model P388 Leukemia (intraperitoneal) in B6D2F1 (BDF1) mice
Conditions: endpoint: median survival time, higher = longer survival
Outline: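 Mice carrying the transplantable tumour receive compound or vehicle. Survival is followed in each arm, and the treated measure is divided by the vehicle measure.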

With `COC(=O)C[C@](O)(CCCC(C)(C)O)C(=O)O[C@@H]1C(OC)=C[C@]23CCCN2CCc2cc4c(cc2[C@H]13)OCO4` as the compound, how does the T/C (dose: 0.06 mg/kg/injection, schedule: Q01DX010 (ip), vehicle: saline) read?
Its T/C is 154 % of control.

What about the T/C (dose: 0.13 mg/kg/injection, schedule: Q01DX010 (ip), vehicle: saline) of the same compound?
The T/C was 172 % of control.

What about the T/C (dose: 0.25 mg/kg/injection, schedule: Q01DX009 (ip), vehicle: acid diluted with saline) of the same compound?
The T/C was 180 % of control.

And the T/C (dose: 0.25 mg/kg/injection, schedule: Q01DX009 (ip), vehicle: water)?
The T/C was 233 % of control and 244 % of control.

What about the T/C (dose: 0.25 mg/kg/injection, schedule: Q01DX010 (ip), vehicle: saline) of the same compound?
The T/C was 181 % of control.

And the T/C (dose: 0.25 mg/kg/injection, schedule: Q03HX016 (ip), vehicle: acid diluted with saline)?
Its T/C is 160 % of control.

What about the T/C (dose: 0.5 mg/kg/injection, schedule: Q01DX006 (iv), vehicle: acid diluted with saline) of the same compound?
The T/C was 115 % of control.

And the T/C (dose: 0.5 mg/kg/injection, schedule: Q01DX009 (ip), vehicle: acid diluted with saline)?
The T/C was 190 % of control.

And the T/C (dose: 0.5 mg/kg/injection, schedule: Q01DX009 (ip), vehicle: saline)?
The T/C was 240 % of control and 100 % of control.

What about the T/C (dose: 0.5 mg/kg/injection, schedule: Q01DX009 (ip), vehicle: water) of the same compound?
Its T/C is 272 % of control and 300 % of control.

What about the T/C (dose: 0.5 mg/kg/injection, schedule: Q01DX009 (oral), vehicle: acid diluted with saline) of the same compound?
The T/C was 115 % of control.

What about the T/C (dose: 0.5 mg/kg/injection, schedule: Q01DX009 (oral), vehicle: saline) of the same compound?
Its T/C is 155 % of control.

And the T/C (dose: 0.5 mg/kg/injection, schedule: Q01DX009 (sc), vehicle: saline)?
Its T/C is 105 % of control.

And the T/C (dose: 0.5 mg/kg/injection, schedule: Q01DX010 (ip), vehicle: saline)?
The T/C was 245 % of control and 215 % of control.

What about the T/C (dose: 0.5 mg/kg/injection, schedule: Q03HX016 (ip), vehicle: acid diluted with saline) of the same compound?
Its T/C is 180 % of control.

And the T/C (dose: 1.0 mg/kg/injection, schedule: Q01DX006 (iv), vehicle: acid diluted with saline)?
The T/C was 160 % of control.

What about the T/C (dose: 1.0 mg/kg/injection, schedule: Q01DX009 (ip), vehicle: acid diluted with saline) of the same compound?
Its T/C is 225 % of control and 218 % of control.

And the T/C (dose: 1.0 mg/kg/injection, schedule: Q01DX009 (ip), vehicle: saline)?
The T/C was 245 % of control and 100 % of control.

And the T/C (dose: 1.0 mg/kg/injection, schedule: Q01DX009 (ip), vehicle: water)?
The T/C was 327 % of control and 338 % of control.

And the T/C (dose: 1.0 mg/kg/injection, schedule: Q01DX009 (oral), vehicle: acid diluted with saline)?
The T/C was 115 % of control.

And the T/C (dose: 1.0 mg/kg/injection, schedule: Q01DX009 (oral), vehicle: saline)?
The T/C was 240 % of control.

And the T/C (dose: 1.0 mg/kg/injection, schedule: Q01DX009 (sc), vehicle: acid diluted with saline)?
Its T/C is 170 % of control.

What about the T/C (dose: 1.0 mg/kg/injection, schedule: Q01DX010 (ip), vehicle: saline) of the same compound?
The T/C was 120 % of control.

And the T/C (dose: 1.0 mg/kg/injection, schedule: Q03HX008 (ip), vehicle: acid diluted with saline)?
Its T/C is 150 % of control.

What about the T/C (dose: 1.0 mg/kg/injection, schedule: Q03HX016 (ip), vehicle: acid diluted with saline) of the same compound?
The T/C was 100 % of control.

And the T/C (dose: 2.0 mg/kg/injection, schedule: Q01DX001 (ip), vehicle: acid diluted with saline)?
The T/C was 120 % of control.

What about the T/C (dose: 2.0 mg/kg/injection, schedule: Q01DX001 (iv), vehicle: acid diluted with saline) of the same compound?
The T/C was 110 % of control.

What about the T/C (dose: 2.0 mg/kg/injection, schedule: Q01DX001 (oral), vehicle: acid diluted with saline) of the same compound?
Its T/C is 110 % of control.

And the T/C (dose: 2.0 mg/kg/injection, schedule: Q01DX001 (sc), vehicle: acid diluted with saline)?
The T/C was 110 % of control.

What about the T/C (dose: 2.0 mg/kg/injection, schedule: Q01DX006 (iv), vehicle: acid diluted with saline) of the same compound?
Its T/C is 200 % of control.

And the T/C (dose: 2.0 mg/kg/injection, schedule: Q01DX009 (ip), vehicle: acid diluted with saline)?
The T/C was 240 % of control and 254 % of control.

And the T/C (dose: 2.0 mg/kg/injection, schedule: Q01DX009 (ip), vehicle: water)?
Its T/C is 88 % of control.

And the T/C (dose: 2.0 mg/kg/injection, schedule: Q01DX009 (sc), vehicle: acid diluted with saline)?
Its T/C is 235 % of control.

What about the T/C (dose: 2.0 mg/kg/injection, schedule: Q01DX009 (sc), vehicle: saline) of the same compound?
The T/C was 205 % of control.

And the T/C (dose: 2.0 mg/kg/injection, schedule: Q04DX003 (ip), vehicle: acid diluted with saline)?
The T/C was 155 % of control and 168 % of control and 170 % of control.

What about the T/C (dose: 2.0 mg/kg/injection, schedule: Q04DX003 (ip), vehicle: saline) of the same compound?
The T/C was 173 % of control.

And the T/C (dose: 3.33 mg/kg/injection, schedule: Q04DX003 (ip), vehicle: acid diluted with saline)?
The T/C was 112 % of control.

And the T/C (dose: 4.0 mg/kg/injection, schedule: Q01DX001 (ip), vehicle: acid diluted with saline)?
The T/C was 115 % of control.

And the T/C (dose: 4.0 mg/kg/injection, schedule: Q01DX001 (iv), vehicle: acid diluted with saline)?
The T/C was 110 % of control.

What about the T/C (dose: 4.0 mg/kg/injection, schedule: Q01DX001 (oral), vehicle: acid diluted with saline) of the same compound?
The T/C was 110 % of control.

And the T/C (dose: 4.0 mg/kg/injection, schedule: Q01DX001 (sc), vehicle: acid diluted with saline)?
The T/C was 120 % of control.

And the T/C (dose: 4.0 mg/kg/injection, schedule: Q01DX006 (iv), vehicle: acid diluted with saline)?
Its T/C is 120 % of control.

What about the T/C (dose: 4.0 mg/kg/injection, schedule: Q01DX009 (ip), vehicle: acid diluted with saline) of the same compound?
Its T/C is 190 % of control.

What about the T/C (dose: 4.0 mg/kg/injection, schedule: Q01DX009 (ip), vehicle: saline) of the same compound?
Its T/C is 100 % of control.

And the T/C (dose: 4.0 mg/kg/injection, schedule: Q01DX009 (sc), vehicle: saline)?
The T/C was 115 % of control.

What about the T/C (dose: 4.0 mg/kg/injection, schedule: Q04DX003 (ip), vehicle: acid diluted with saline) of the same compound?
Its T/C is 110 % of control.

What about the T/C (dose: 8.0 mg/kg/injection, schedule: Q01DX009 (ip), vehicle: saline) of the same compound?
The T/C was 104 % of control.

And the T/C (dose: 62.5 micrograms/kg/injection, schedule: Q01DX009 (ip), vehicle: saline)?
The T/C was 154 % of control.

What about the T/C (dose: 125.0 micrograms/kg/injection, schedule: Q01DX009 (ip), vehicle: saline) of the same compound?
Its T/C is 154 % of control.

What about the T/C (dose: 125.0 micrograms/kg/injection, schedule: Q03HX024 (ip), vehicle: acid diluted with saline) of the same compound?
Its T/C is 170 % of control.

And the T/C (dose: 250.0 micrograms/kg/injection, schedule: Q01DX009 (ip), vehicle: saline)?
Its T/C is 163 % of control.

And the T/C (dose: 250.0 micrograms/kg/injection, schedule: Q03HX024 (ip), vehicle: acid diluted with saline)?
The T/C was 190 % of control.

And the T/C (dose: 500.0 micrograms/kg/injection, schedule: Q01DX009 (ip), vehicle: saline)?
Its T/C is 190 % of control.

And the T/C (dose: 500.0 micrograms/kg/injection, schedule: Q03HX024 (ip), vehicle: acid diluted with saline)?
The T/C was 215 % of control.

And the T/C (dose: 1000.0 micrograms/kg/injection, schedule: Q01DX009 (ip), vehicle: saline)?
Its T/C is 213 % of control.
